# Reference: paper PMC9446148, “Hapten designs based on aldicarb for the development of a colloidal gold immunochromatographic quantitative test strip” (Frontiers in Nutrition, 2022)
# System: anti-aldicarb monoclonal antibody
# Assay: icELISA cross-reaction test of the monoclonal antibody
# Type: binding, mouse
# Details: for Cross-reaction rate: IC50 of aldicarb relative to IC50 of inhibitor; for IC50: icELISA, inhibitor against anti-aldicarb monoclonal antibody
# From the text: A mouse monoclonal antibody subtype identification ELISA kit was used to identify the antibody subtype. Indirect competitive ELISA (icELISA) was used to determine the 50% inhibitory mass concentration (IC50) of the monoclonal antibody against aldicarb, and IC50 was used to measure the sensitivity of the monoclonal antibody ([28]). Cross-reaction tests were used to determine specificity, in which aldicarb sulfone, aldicarb sulfoxide, thiofanox, oxamyl, methomyl, metolcarb, isoprocarb, and carbofuran were selected as inhibitors. The IC50 of each inhibitor was determined by icELISA, and the IC50 of the monoclonal antibody against aldicarb and the IC50 of the inhibitor were taken as the cross-reaction rate.
# Antibody specificity is the ability of the antibody to bind to a specific antigen in preference over antigen analogs. The cross-reactivity rate is often used as an evaluation standard because an inverse relationship exists between the cross-reactivity rate and the specificity of the antibody. In this study, we selected aldicarb sulfone, aldicarb sulfoxide, thiofanox, oxamyl, methomyl, metolcarb, isoprocarb, and carbofuran, with chemical structures similar to that of aldicarb, for the specificity analysis.
Structure (SMILES),Cross-reaction rate [%],IC50 [µg/mL],other results
CNC(=O)O/N=C/C(C)(C)S(C)(=O)=O [Aldicarb sulfone],<0.978,>0.042,Cross-reaction rate (listed as aldicarb sulfone): < 1%
CNC(=O)O/N=C/C(C)(C)[S+](C)[O-] (stereo not shown) [Aldicarb sulfoxide],<0.978,>0.042,Cross-reaction rate (listed as aldicarb sulfoxide): < 1%
"CNC(=O)O/N=C/C(C)(C)SC [Aldicarb, [(E)-(2-methyl-2-methylsulfanylpropylidene)amino]N-methylcarbamate]",100,–,–
CNC(=O)Oc1cccc2c1OC(C)(C)C2 [Carbofuran],<0.978,>0.042,Cross-reaction rate (listed as carbofuran): < 1%
CNC(=O)Oc1ccccc1C(C)C [Isoprocarb],<0.978,>0.042,Cross-reaction rate (listed as isoprocarb): < 1%
CNC(=O)ON=C(C)SC [Methomyl],<0.978,>0.042,Cross-reaction rate (listed as methomyl): < 1%
CNC(=O)Oc1cccc(C)c1 [Metolcarb],<0.978,>0.042,Cross-reaction rate (listed as metolcarb): < 1%
CNC(=O)O/N=C(\SC)C(=O)N(C)C [Oxamyl],<0.978,>0.042,Cross-reaction rate (listed as oxamyl): < 1%
CNC(=O)ON=C(CSC)C(C)(C)C [Thiofanox],<0.978,>0.042,Cross-reaction rate (listed as thiofanox): < 1%
